Assay results taken from patent US9486430B2, “Treatment of neurodegenerative disease” (priority 2010, dated 2016).

Assays:
[1] = carbidopa with levodopa; cited from earlier work
[2] = test system: patients; conditions: some patients; cited from earlier work
[3] = test system: patient with stage four idiopathic Parkinson's Disease; test: Observation of a stage four Parkinson's Disease patient on t-RES with SINEMET (Tremor Rating Scale, UPDRS); type: in vivo, human
Text: (§1) As described in detail below, the parameters used to measure these findings were basic observations of speech, gait, overall function and tremor before and after administering t-RES over a period of months using the author's Tremor Rating Scale (TRS) in addition to the UPDRS (Fahn, et al., Recent Developments in Parkinson's Disease, 1989). […] The International Normalized Ratio is a measure of clotting speed in the blood used especially as an indicator of Warfarin levels in the blood in patients with Atrial Fibrillation who need reduced clotting probability, to prevent strokes and pulmonary embolisms—but not so reduced as to increase the chances of hemorrhage, especially from trauma. The INR in a normal person ranges from 0.8 to 1.2 in an A-Fib patient the INR should be maintained between 2.0 and 3.0 (Avery, et al., Clin. Pharmacol. Ther., 2011).
In a particular embodiment, the effect of t-RES on a patient with stage four idiopathic Parkinson's Disease was observed. The patient was followed closely for fourteen months while receiving t-RES. t-RES was administered daily and changes in speech, handwriting, gait, leg movement, and dyskinesias were observed. […] Handwriting samples were taken before and after taking t-RES.
Starting dose of ½ pill 3 times/day SINEMET® 25/100 and 4 pills/day SINEMET® CR 25/100. Doses were given every four hours starting at 7 am.
Eleven months into the study, patient was taking 500 mg t-RES/day, considered the lowest mega-dose, plus the added 100 mg general polyphenols which are mixed into each 125 mg t-RES capsule.
This was achieved using a scale devised by the inventor, with three states: tremor, no dyskinesia (T, ND=0); non-tremor, no dyskinesia (NT, ND=1); and dyskinesia, no tremor (D, NT=2). The patient's state was recorded every half hour from 7 am to 10 pm by the author and caregivers on all days practicable.
Daily numbers from the inventor's 0-2 Tremor Rating Scale (TRS) scale were then tallied and entered into the Unified Parkinson's Disease Rating Scale (UPDRS) for comparison.
The doses of t-RES, SINEMET® and other supplements were also noted, with adjustments being made as necessary. The results were then examined for overall changes observed when the t-RES dose was increased every few months as shown in FIG. 2.

[4] = mice; cited from earlier work
[5] = test system: patient with Parkinson's Disease; test: Tolerability of other drugs and supplements in the Parkinson's Disease patient
Text: Patients on the anticoagulant warfarin are expected to have a reading between 2 and 3, with three being the least coagulated.

[6] = test system: healthy volunteers; conditions: cited from earlier work; for adverse effects in healthy volunteers: up to 5 g (5000 mg per day)
[7] = Kidney function test in the Parkinson's Disease patient; type: in vivo, human; conditions: patient on t-RES; data not shown
[8] = test system: amyloid plaques in mouse brain; conditions: dietary supplementation, transgenic model of Alzheimer's Disease; cited from earlier work
[9] = test system: monoamine oxidase A (MAO-A), MAO-B; conditions: rat brain; cited from earlier work
[10] = International Normalized Ratio (INR) anticoagulation test in the Parkinson's Disease patient; type: in vivo, human; conditions: for INR: ref. range 0.8-1.2
Text: as §1

## C[C@@](Cc1ccc(O)c(O)c1)(NN)C(=O)O [Carbidopa, carbidopa]
[1]
  reduction of the amount of levodopa required to produce a given response: about 75%

## C#CCN(C)[C@H](C)Cc1ccccc1 [deprenyl]
[2]
  extension of lifespan: up to 10 years

## N[C@@H](CCC(=O)N[C@@H](CS)C(=O)NCC(=O)O)C(=O)O [glutathione]
[3]; glutathione reduced while on t-RES and SINEMET
  symptoms on reducing glutathione: worsening of symptoms

## Cc1ccc(NC(=O)c2ccc(CN3CCN(C)CC3)cc2)cc1Nc1nccc(-c2cccnc2)n1 [imatinib]
[4]
  crossing of the blood-brain barrier: not able to cross the blood-brain barrier

## C#CCN[C@@H]1CCc2ccccc21 [rasagiline]
[5]; human, in vivo
  tolerability in the patient: neither was tolerated

## Oc1ccc(C=Cc2cc(O)cc(O)c2)cc1 [resveratrol, 3,5,4′-trihydroxy-stilbene]
[6]; 2000 mg twice daily, two-week study, eight healthy adults
  reported adverse events: minor diarrhea
[6]
  adverse effects in healthy volunteers: no adverse effects

## C#CCN(C)[C@H](C)Cc1ccccc1 [selegiline]
[5]; therapy in conjunction with SINEMET
  tolerability in the patient: neither was tolerated

## Oc1ccc(/C=C/c2cc(O)cc(O)c2)cc1 [t-RES, 3,5,4′-trihydroxy-trans-stilbene]
[7]
  Kidney function: within the normal range
[8]
  amyloid plaques in mouse brain: reduce the number of amyloid plaques
[9]
  inhibition of MAO-A compared with MAO-B: slightly more than MAO-B
[6]
  adverse effects in healthy volunteers: no adverse effects
[10]; 250 mg t-Res + 81 mg/day aspirin, Oct. 26, 2010
  INR: 1
[10]; 500 mg followed by 625 mg t-RES, eight and 12 months into the study, normal range 0.8-1.2
  INR score (blood coagulation): 1
[10]; 500 mg t-Res, Mar. 14, 2011
  INR: 1.0
[10]; 625 mg t-Res, Jul. 6, 2011
  INR: 1.0
[3]; 14 months post t-RES (625 mg/day), September 2011, 550 mg before t-RES
  Total Levodopa per day: day = 500 mg max
[3]; UPDRS ratings, t-RES plus SINEMET, FIG. 2, rarely over
  tremors and dyskinesias, share of the day: ≤ 25 % of the day
[3]; UPDRS-based, t-RES plus SINEMET, FIG. 2
  patient's "on" time, share of the day: 75 % of the day
[3]; each increase of t-RES by 125 mg/day, with SINEMET, FIG. 2, FIG. 3
  dyskinesias on t-RES dose increase: dyskinesias increased
[3]; first few days of t-RES, from 1½ tablets per day (150 mg levodopa) to one tablet per day
  need for SINEMET per day after starting t-RES: 100 mg levodopa
[3]; following first administration of t-RES (125 mg capsule)
  cognition and speech: overnight improvement in cognition and speech
[3]; soon after beginning t-RES
  hallucinations: completely eliminated on most days
